One data set can be described thus: Solubility in water. The format is physicochemical.
The test system of the next data set is OVX C57BL/6J female mice. The data set is described as follows: Ovariectomy (OVX)-induced osteoporosis and obesity in mice, dosing in drinking water over two months. Format: in vivo, mouse. An excerpt: Aging-related bone loss and osteoporosis frequently occur in women after menopause. To mimic the pathogenesis of osteoporotic bone loss, we performed ovariectomy (OVX) on female mice to induce estrogen deficiency. […] Mice weight on average 20 g at the start of the experiment. […] Dosing was over two months.
(§1) For the mice on high fat diets, the starting animal weights were about 25 grams.
We monitored mouse body weight, food and water consumption on a weekly basis for two months. Nuclear magnetic resonance scanner was used to assess lean mass and fat mass composition. Serum chemistries were analyzed in UCLA DLAM facility. Liver and adipose tissues were harvested for histology and histomorphometric analyses. Femur, tibia and mandible were subjected to micro-CT scanning and reconstruction. […] One-way ANOVA was performed to quantify differences among all the groups.

A short description of data set [1]: Stability of water solutions. Format: physicochemical. The conditions noted are these: water solution.
The next data set has as its system aged C57BL/6J male mice. In words: Bone and adipose metabolism in aged mice, dosing in drinking water from 18 months of age for six months. The conditions noted are these: for body weight: after six months treatment. Format: in vivo, mouse. The method, then: as §1
Mice weighed 40 g on average at the start of the study. Body weight, food and water consumption were monitored on a weekly basis. Nuclear magnetic resonance scanner was used to assess lean mass and fat mass composition. Liver and adipose tissues were harvested for histology and histomorphometric analyses. Femur, tibia and mandible were subjected to μCT scanning and reconstruction. […] One-way ANOVA was performed to quantify differences among all the groups.

Another data set has as its system HFD-fed mice. The data set is described as follows: High fat diet (HFD)-induced obesity and bone loss in mice, dosing in drinking water for three months. The format is in vivo, mouse.
Excerpt: as §1
Mice were given a regular diet or high fat diet (HFD) for three months beginning at age of 8 weeks. […] Body weight, food and water consumption were monitored on a weekly basis for three months. Nuclear magnetic resonance scanner was used to assess lean mass and fat mass composition. Liver and adipose tissues were harvested for histology and histomorphometric analyses. Femur, tibia and mandible were subjected to micro-CT scanning and reconstruction. […] One-way ANOVA was performed to quantify differences among all the groups.

The mark [2] stands for this setting: 100 mg/kg/day alone, compared with 500 mg/kg/day and combination groups.

Entries after “also recorded” stand apart in the source; their conditions may differ.

As to `NC(=O)c1ccc[n+]([C@@H]2O[C@H](COP(=O)([O-])O)[C@@H](O)[C@H]2O)c1` [NMN, 3-carbamoyl-1-[5-O-(hydroxyphosphinato)-β-D-ribofuranosyl]pyridinium], the solubility in water result in the data set “Solubility in water” is “dissolve well in water”. Further, the “weight and size of liver” value in the data set on OVX C57BL/6J female mice (100 mg/kg/day alone, OVX mice) is “did not significantly affect”; in the data set on aged C57BL/6J male mice (setting [2]), “significantly higher”; with aged C57BL/6J male mice (500 mg/kg/day alone, comparison is worded from the side of control and 100 mg/kg/day groups), “significantly higher in control, 100 mg/kg/day α-KG, and 100 mg/kg/day NMN groups compared with”. In addition, in the data set with OVX C57BL/6J female mice (100 mg/kg/day alone, drinking water, two months), the “OVX-induced body weight gain” value is listed as “ineffective; also recorded: did not significantly inhibit”. Further, in the data set on OVX C57BL/6J female mice (500 mg/kg/day alone, drinking water, two months), the “OVX-induced mouse body weight gain” value is “significantly inhibited”. Further, in data set [1], the “stability of the water solutions” value was “highly stable”. Moreover, the body weight entry is on record as “increased at a similar rate” with aged C57BL/6J male mice (100 mg/kg/day alone, compared with control) and “decreased significantly” with aged C57BL/6J male mice (500 mg/kg/day alone). Moreover, in the data set with aged C57BL/6J male mice (setting [2]), the “fat mass and lean mass (nuclear magnetic resonance)” value was “significantly higher fat mass and lower lean mass”. Moreover, the “weight of pgWAT” value in the data set on aged C57BL/6J male mice (setting [2]) is listed as “significantly higher”. Further, the “fat mass (nuclear magnetic resonance)” value in the data set on HFD-fed mice (100 mg/kg/day alone, HFD) is given as “could not affect”. In addition, in the data set with HFD-fed mice (low concentration (100 mg/kg/day) alone, three months), the “weight gains induced by HFD” value was “did not significantly reduce”. In addition, the “pgWAT weight gain induced by HFD” value in the data set on HFD-fed mice (low concentration alone) is given as “did not significantly inhibit”.
Regarding alpha-ketoglutarate [α-KG], the “stability of the water solutions” value in data set [1] is reported as “highly stable”.

These data come from US20250281518A1, “METHODS AND AGENTS FOR PREVENTING SKELETAL AGING, OSTEOPOROSIS AND OBESITY” (The Regents of the University of California, priority 2022, published 2025).
